The text below walks through data of patent publication US20230226003A1, “NATURAL ANTIBACTERIAL AND ANTIVIRAL BIOLOGICAL COMPOSITIONS, COMPOUNDS, METHOD FOR OBTAINING SAME, AND USE THEREOF” (BEEOTEC HOLDING S/A, priority 2020, published 2023).

The test system of this test is microorganisms on surfaces of a surgical center. Briefly: Efficiency of disinfectants: reduction of microbial counts on surgical center surfaces. The settings on record: post- vs pre-disinfection; same letter = no significant difference (p < 0.05).

For the compound `OCl` [0.5% sodium hypochlorite, sodium hypochlorite], the “Reduction of counts microbial (%)” value is given as 61 b %. As for `CC(C)O` [70% isopropanol, isopropyl alcohol], the “Reduction of counts microbial (%)” value was determined as 87 a %.
